Data from patent US20230277553A1, “THERAPEUTIC COMPOSITION OF CURE-PRO COMPOUNDS FOR TARGETED DEGRADATION OF BET DOMAIN PROTEINS, AND METHODS OF MAKING AND USAGE” (CORNELL UNIVERSITY, priority 2020, published 2023).
“Also recorded” adds a separate entry of the source.

How the values were obtained:
[1] = molecular target: T1, BRD4 (Homo sapiens, UniProt O60885); experiment: CURE-PRO-mediated BRD4 degradation, Western blot, HeLa cells; type: cell-based; parameters: endogenous in cells; host or cells: HeLa; details: 24 h; for BRD4 degradation, co-treatment with CRBN ligand 8048: 1:1 with 8048, 1-10 μM each; for BRD4 degradation, co-treatment with CRBN ligand 8048 / BRD4 degradation, co-treatment with CRBN ligand 8049 / BRD4 degradation, BRD ligand alone / BRD4 degradation, co-treatment with CRBN ligand 8046 / BRD4 degradation, co-treatment with CRBN ligand 8047 / BRD4 degradation, co-treatment with CRBN ligand 8066: Western blot; for BRD4 degradation, co-treatment with CRBN ligand 8049: 1:1 with 8049, 1-10 μM each; for BRD4 degradation, BRD ligand alone: BRD monomer alone; for BRD4 degradation, co-treatment with CRBN ligand 8046: 1:1 with 8046, 10 μM each; for BRD4 degradation, co-treatment with CRBN ligand 8047: 1:1 with 8047, 10 μM each; for BRD4 degradation, co-treatment with CRBN ligand 8066: 1:1 with 8066, 10 μM each (BRD-E10: 10 and 100 μM)
Description: All cell lines were purchased from ATCC or DSMZ and grown at 37° C. with 5% CO2. Human HeLa cells were cultured in complete growth medium (Dulbecco's modified Eagle's medium (DMEM) supplemented with 10% FBS); MCF7 cells were cultured in complete growth medium (Dulbecco's modified Eagle's medium (DMEM) supplemented with 10% FBS and 0.01 mg/ml human recombinant insulin (Sigma Aldrich); Namalwa and MOLM-13 cells were cultured in complete growth medium (RPMI 1640 medium supplemented with 10% FBS); MV-4-11 were cultured in complete growth medium (Iscove's Modified Dulbecco's medium, supplemented with 10% FBS); HCT116 cells were cultured in complete growth medium (McCoy's 5a Medium supplemented with 10% FBS). For cellular degradation of BRD4 studies, cells were seeded in a 12-well plate at 70-80% confluency, allowed to attach overnight, and incubated with the indicated compounds for the indicated time. When indicated, a 15-minute pretreatment with 10 μM pomalidomide, 10 μM VHL298, 10 μM Nutlin3a, 1 μM MG-132 or 1 μM Carfilzomib was performed before the addition of CURE-PROs. For washout studies, after CURE-PRO treatment, media was aspirated and incubated with complete medium for the indicated time before lysis.
Anti-BRD4 (13440, 1:1,000 dilution for Western Blot and 1:25 dilution for ProteinSimple); Anti-BRD2 (5848 1:1,000 dilution for Western Blot and 1:25 dilution for ProteinSimple); β-Actin (3700, 1:2,000 dilution for Western Blot), β-Actin (4970, 1:50 dilution for ProteinSimple) anti-mouse IgG-HRP, and anti-rabbit IgG-HRP antibodies were purchased Cell Signaling Technology. Anti-GAPDH (600-401-A33, 1:100 dilution for ProteinSimple) was purchased from Rockland Immunochemicals, Inc. Anti-BRD3 (sc-81202, 1:200 dilution for Western Blot) was purchased from Santa Cruz Biotechnology.
HeLa, MCF7, or HCT116 cells (2.5-3×10^6) were treated for 24 hours with the indicated compounds solubilized in DMSO. The cells were washed in ice-cold PBS and were then lysed in RIPA lysis buffer (150 mM NaCl, 5 mM EDTA, 1% NP-40, 0.5% sodium deoxycholate, 0.1% SDS, 50 mM Tris, pH 8.0.) with Roche protease inhibitor complete cocktail and phosphatase inhibitors (10 mM sodium fluoride, 10 mM sodium pyrophosphate, 1 mM sodium orthovanadate and 20 mM β-glycerophosphate). The total protein concentrations were determined by Bradford Protein Assay and 10-20 μg of protein was loaded onto 4-15% Tris-Glycine gradient gels (Biorad). After standard gel electrophoresis, the separated proteins were transferred to PVDF membrane by wet transfer. The immunoblots were then blocked for 1 hour in 5% skim milk in TBST or 5% BSA in TBST, according to manufacturer's instructions, before an overnight incubation at 4° C. with indicated antibodies and membranes. Membranes were then incubated with the appropriate horseradish peroxidase-conjugated secondary antibodies (1:5,000 dilution) for 1 h at room temperature and the bands were visualized using the Clarity Max Western ECL Substrate (Biorad) and the ChemiDoc Imaging System (Biorad). Signal was detected with ECL Western Blotting Substrate (Pierce) and X-ray film processed with a Konica SRX-101 X-ray film processor or captured by Bio-Rad's Chemidoc Imaging system.
HeLa cells (2.5×106) were treated for 24 hours with the sample compounds solubilized in DMSO. Compounds were added at 1-10 μM each. Standardized protein samples were electrophoresed and imaged as described in the immunoblotting description above. FIGS. 6-18 depicts the CURE-PRO-mediated BRD4 degradation for BRD monomers (JQ1 derivatives comprising of catechol linkers), and CRBN ligands, 8048 and 8049 (pomalidomide derivatives comprising boronic acid linkers) combined in a 1:1 ratio.
HeLa cells (2.5×106) were treated for 24 hours with the compounds solubilized in DMSO. The compounds were added at 10 μM each. Standardized protein samples were electrophoresed and imaged as described in the immunoblotting section above. […]

[2] = molecular target: T1, BRD4; experiment: Summary of BRD4 degradation by CURE-PRO pairs, estimated from Western Blot or WES (Proteinsimple); type: cell-based; parameters: endogenous in cells; details: for Degradation of BRD4 in combination with CRBN ligand [drawing 407]: Table 4, aryl-boronic acid-containing CRBN ligand, first drawing (by text: 8048); for Degradation of BRD4 in combination with CRBN ligand [drawing 371] / Degradation of BRD4 in combination with CRBN ligand [drawing 372] / Degradation of BRD4 in combination with CRBN ligand [drawing 370]: Table 1; for Degradation of BRD4 in combination with CRBN ligand [drawing 371]: second drawing (8047); for Degradation of BRD4 in combination with CRBN ligand [drawing 372]: third drawing (8066); for Degradation of BRD4 in combination with CRBN ligand [drawing 370]: aromatic 1,2-diol- or hindered cis-1,2-diol-containing CRBN ligand, first drawing (8046)
Description: A black check mark indicates efficacy of 30% to 70% or higher protein degradation.

| SMILES | BRD4 degradation, co-treatment with CRBN ligand 8048 [1] | BRD4 degradation, co-treatment with CRBN ligand 8049 [1] | BRD4 degradation, BRD ligand alone [1] | Degradation of BRD4 in combination with CRBN ligand [drawing 407] [2] | BRD4 degradation, co-treatment with CRBN ligand 8047 [1] | BRD4 degradation, co-treatment with CRBN ligand 8066 [1] | Degradation of BRD4 in combination with CRBN ligand [drawing 371] [2] | Degradation of BRD4 in combination with CRBN ligand [drawing 372] [2] | also measured |
| --- | --- | --- | --- | --- | --- | --- | --- | --- | --- |
| CCNC(=O)C[C@@H]1N=C(c2ccc(Cl)cc2)c2cc(OCCOCCOCCOCCOCCOCCNC(=O)c3cccc(O)c3O)ccc2-n2c(C)nnc21 [BRD-N71, N-(17-(((4S)-6-(4-chlorophenyl)-4-(2-(ethylamino)-2-oxoethyl)-1-methyl-4H-benzo[f][1,2,4]triazolo[4,3-a][1,4]diazepin-8-yl)oxy)-3,6,9,12,15-pentaoxaheptadecyl)-2,3-dihydroxybenzamide] | causes degradation of BRD4; also recorded: Some selectivity for BRD-N71 and 8048 is noted | no evidence of BRD4 degradation | no degradation of BRD4 | ✓ (A black check mark indicates efficacy of 30% to 70% or higher protein degradation) | – | – | – | – | Degradation of BRD4 in combination with MDM2 ligand [drawing 424] ([2]; Table 5, aryl-boronic acid-containing MDM2 ligand, second drawing (8312)): ✓ (A black check mark indicates efficacy of 30% to 70% or higher protein degradation) |
| COc1ccc2c(c1)C(c1ccc(Cl)cc1)=N[C@@H](CC(=O)NCCCNC(=O)c1cccc(B(O)O)c1)c1nnc(C)n1-2 [BRD-E4] | – | – | – | – | causes degradation of BRD4; also recorded: Degradation is noted | causes degradation of BRD4; also recorded: Degradation is noted | ✓ (A black check mark indicates efficacy of 30% to 70% or higher protein degradation) | ✓ (A black check mark indicates efficacy of 30% to 70% or higher protein degradation) | BRD4 degradation, co-treatment with CRBN ligand 8046 [1]: causes degradation of BRD4; also recorded: Degradation is noted; Degradation of BRD4 in combination with CRBN ligand [drawing 370] [2]: ✓ (A black check mark indicates efficacy of 30% to 70% or higher protein degradation) |
| CCNC(=O)C[C@@H]1N=C(c2ccc(Cl)cc2)c2cc(OCCOCCOCCOCCOCCOCCNC(=O)c3ccc(O)c(O)c3)ccc2-n2c(C)nnc21 [BRD-N70, N-(17-(((4S)-6-(4-chlorophenyl)-4-(2-(ethylamino)-2-oxoethyl)-1-methyl-4H-benzo[f][1,2,4]triazolo[4,3-a][1,4]diazepin-8-yl)oxy)-3,6,9,12,15-pentaoxaheptadecyl)-3,4-dihydroxybenzamide] | causes degradation of BRD4; also recorded: Degradation is noted | no evidence of BRD4 degradation | – | ✓ (A black check mark indicates efficacy of 30% to 70% or higher protein degradation) | – | – | – | – | – |
| COc1ccc2c(c1)C(c1ccc(Cl)cc1)=N[C@@H](CC(=O)NCCNC(=O)c1ccc(O)c(O)c1)c1nnc(C)n1-2 [BRD-N1] | causes degradation of BRD4; also recorded: Degradation is noted | no evidence of BRD4 degradation | no degradation of BRD4 | ✓ (A black check mark indicates efficacy of 30% to 70% or higher protein degradation) | – | – | – | – | – |
| COc1ccc2c(c1)C(c1ccc(Cl)cc1)=N[C@@H](CC(=O)NCCCCNC(=O)c1ccc(B(O)O)cc1)c1nnc(C)n1-2 [BRD-E5] | – | – | – | – | causes degradation of BRD4; also recorded: Degradation is noted | causes degradation of BRD4; also recorded: Degradation is noted | ✓ (A black check mark indicates efficacy of 30% to 70% or higher protein degradation) | ✓ (A black check mark indicates efficacy of 30% to 70% or higher protein degradation) | – |
| CCNC(=O)C[C@@H]1N=C(c2ccc(Cl)cc2)c2cc(OCCOCCNC(=O)c3ccc(O)c(O)c3)ccc2-n2c(C)nnc21 [BRD-N38, N-(2-(2-(((4S)-6-(4-chlorophenyl)-4-(2-(ethylamino)-2-oxoethyl)-1-methyl-4H-benzo[f][1,2,4]triazolo[4,3-a][1,4]diazepin-8-yl)oxy)ethoxy)ethyl)-3,4-dihydroxybenzamide] | causes degradation of BRD4 | – | no degradation of BRD4 | ✓ (A black check mark indicates efficacy of 30% to 70% or higher protein degradation) | – | – | – | – | – |
| COc1ccc2c(c1)C(c1ccc(Cl)cc1)=N[C@@H](CC(=O)NCCNC(=O)Cc1ccc(O)c(O)c1)c1nnc(C)n1-2 [BRD-N30] | causes degradation of BRD4 | – | no degradation of BRD4 | ✓ (A black check mark indicates efficacy of 30% to 70% or higher protein degradation) | – | – | – | – | – |
| CCNC(=O)C[C@@H]1N=C(c2ccc(Cl)cc2)c2cc(OCCOCCOCCOCCNC(=O)c3ccc(B(O)O)cc3)ccc2-n2c(C)nnc21 [BRD-E43] | – | – | – | – | causes degradation of BRD4 | causes degradation of BRD4; also recorded: Degradation is noted | ✓ (A black check mark indicates efficacy of 30% to 70% or higher protein degradation) | ✓ (A black check mark indicates efficacy of 30% to 70% or higher protein degradation) | BRD4 degradation, co-treatment with CRBN ligand 8046 [1]: but not 8046 |
| COc1ccc2c(c1)C(c1ccc(Cl)cc1)=N[C@@H](CC(=O)NCc1cccc(B(O)O)c1)c1nnc(C)n1-2 [BRD-E10] | – | – | – | – | – | – | ✓ (A black check mark indicates efficacy of 30% to 70% or higher protein degradation) | – | Concentration at which BRD4 degradation is observed, co-dosed with 8046 ([1]; 1:1 with 8046): 100 µM; Concentration at which complete BRD4 degradation is demonstrated, with 8047 ([1]; 1:1 with 8047, tested 10 and 100 μM): 10 µM; Degradation of BRD4 in combination with CRBN ligand [drawing 370] [2]: ✓ (A black check mark indicates efficacy of 30% to 70% or higher protein degradation); Degradation of BRD4 in combination with VHL ligand [drawing 396] ([2]; Table 3, aromatic 1,2-diol-containing VHL ligand, first drawing (by text: 8304)): ✓ (A black check mark indicates efficacy of 30% to 70% or higher protein degradation) |
| COc1ccc2c(c1)C(c1ccc(Cl)cc1)=N[C@@H](CC(=O)NCCOCCOCCNC(=O)c1ccc(B(O)O)cc1)c1nnc(C)n1-2 [BRD-E45] | – | – | – | – | – | causes degradation of BRD4 | – | ✓ (A black check mark indicates efficacy of 30% to 70% or higher protein degradation) | Degradation of BRD4 in combination with VHL ligand [drawing 397] ([2]; Table 3, aromatic 1,2-diol-containing VHL ligand, second drawing (8305)): ✓ (A black check mark indicates efficacy of 30% to 70% or higher protein degradation) |
